Series [1] deals with A2780. In words: Induction of apoptosis in human A2780 cells assessed as secondary necrotic cells at 6 uM measured after 2 days by Annexin V/FITC/propidium iodide staining-based FACS analysis. Format: functional, cell-based. On the technique in general: Flow cytometry measures light scatter and fluorescence of single cells or particles in a stream.
The nature of series [2]: Cytotoxicity against human HT-29 cells measured after 96 hrs by SRB assay. In kind it is functional, cell-based. As to conditions: HT-29, 96 h. On the technique in general: In SRB staining, fixed cells bind dye roughly in proportion to their protein.
Series [3] can be described thus: Cytotoxicity against human 518A2 cells measured after 96 hrs by SRB assay. In kind it is functional, cell-based. The settings on record: 518A2, 96 h.
Series [4] is described as follows: Cytotoxicity against human A2780 cells measured after 96 hrs by SRB assay. As to conditions: A2780, 96 h. In kind it is functional, cell-based.
In series [5] the test system is A2780. In words: Induction of apoptosis in human A2780 cells assessed as secondary necrotic cells at 6 uM measured after 40 hrs by acridine orange/propidium iodide staining-based fluorescence microscopic analysis. Format: functional, cell-based.
Series [6] has as its system A2780. In words: Induction of apoptosis in human A2780 cells assessed as increase in apoptotic cells at 6 uM measured after 2 days by Annexin V/FITC/propidium iodide staining-based FACS analysis. In kind it is functional, cell-based.
A short description of series [7]: Cell cycle arrest in human A2780 cells assessed as loss of G2 peak at 6 uM measured after 24 hrs by propidium iodide staining based FACS analysis. In kind it is functional.
Series [8] in a line: Cytotoxicity against human MCF7 cells measured after 96 hrs by SRB assay. In kind it is functional, cell-based. The settings on record: MCF7, 96 h.
A short description of series [9]: Cell cycle arrest in human A2780 cells assessed as decrease in G1 peak at 6 uM measured after 24 hrs by propidium iodide staining based FACS analysis. Format: functional.
The nature of series [10]: Cytotoxicity against human 8505C cells measured after 96 hrs by SRB assay. In kind it is functional, cell-based.
Series [11] can be described thus: Cytotoxicity against human A549 cells measured after 96 hrs by SRB assay. Format: functional, cell-based. As to conditions: A549, 96 h.
Series [12] is described as follows: Cell cycle arrest in human A2780 cells assessed as sub-G1 peak appearance at 6 uM measured after 48 hrs by propidium iodide staining based FACS analysis. Format: functional.
Series [13] is described as follows: Cytotoxicity against mouse NIH/3T3 cells measured after 96 hrs by SRB assay. In kind it is toxicity, NIH3T3.
The test system of series [14] is A2780. In words: Induction of apoptosis in human A2780 cells assessed as induction of membrane blebbing at 6 uM measured after 40 hrs by acridine orange/propidium iodide staining-based fluorescence microscopic analysis. In kind it is functional, cell-based.
Series [15] can be described thus: Cell cycle arrest in human A2780 cells assessed as accumulation at S-phase at 6 uM measured after 24 hrs by propidium iodide staining based FACS analysis. Format: functional.
The nature of series [16]: Cell cycle arrest in human A2780 cells assessed as decrease in accumulation of cells at S-phase at 6 uM measured after 48 hrs by propidium iodide staining based FACS analysis. In kind it is functional.
Series [17] can be described thus: Cell cycle arrest in human A2780 cells assessed as loss of G2 peak at 1.5 uM measured after 24 hrs by propidium iodide staining based FACS analysis. In kind it is functional.
Series [18] in a line: Cell cycle arrest in human A2780 cells assessed as accumulation at S-phase at 1.5 uM measured after 24 hrs by propidium iodide staining based FACS analysis. Format: functional.
Series [19] has as its system A2780. The experiment in a line: Induction of apoptosis in human A2780 cells assessed as apoptotic cells at 1.5 uM measured after 48 hrs by Annexin V/FITC/propidium iodide staining-based FACS analysis relative to control. In kind it is functional.
Series [20] can be described thus: Cell cycle arrest in human A2780 cells assessed as sub-G1 peak appearance at 1.5 uM measured after 48 hrs by propidium iodide staining based FACS analysis. In kind it is functional.
Series [21] in a line: Cell cycle arrest in human A2780 cells assessed as decrease in accumulation of cells at S-phase at 1.5 uM measured after 48 hrs by propidium iodide staining based FACS analysis. In kind it is functional.
Series [22] is described as follows: Cell cycle arrest in human A2780 cells assessed as decrease in G1 peak at 1.5 uM measured after 24 hrs by propidium iodide staining based FACS analysis. Format: functional.
In series [23] the test system is A2780. The experiment in a line: Induction of apoptosis in human A2780 cells assessed as increase in secondary necrotic cells at 1.5 uM measured after 48 hrs by Annexin V/FITC/propidium iodide staining-based FACS analysis relative to control. In kind it is functional.
Series [24] in a line: Solubility of compound in water. In kind it is physicochemical. The settings on record: buffer.
Series [25] relates to A2780. In words: Selectivity index, ratio of EC50 for mouse NIH/3T3 cells to EC50 for human A2780 cells. Format: functional.
Series [26] has as its system A2780. In words: Induction of apoptosis in human A2780 cells assessed as increase in apoptotic cells at 1.5 uM measured after 24 hrs by Annexin V/FITC/propidium iodide staining-based FACS analysis relative to control. In kind it is functional.

pEC50: −log10 of the molar value. Calls of active or inactive are those of the source. No cut-off for these calls is given here.

Usually pEC50 stands for the EC50 on a negative log10 scale, so that one unit is a factor of ten. A higher pEC50 goes with a low EC50. A word on the EC50: it is the concentration needed to bring the measured effect to its halfway point. A low value points to higher potency in that assay. For the compound `CC(=O)O[C@H]1C[C@]2(C)[C@H]3CC=C4[C@@H]5CC(C)(C)CC[C@]5(C(=O)Nc5cncc6ccccc56)CC[C@@]4(C)[C@]3(C)CC[C@H]2C(C)(C)[C@H]1OC(C)=O`, the result (with A2780 [1]; in the series on A2780 [5]; in the series on A2780 [6]; in series [7]; in [9]; in series [12]) was Active. The outcome (with A2780 [14]; in [15]; in series [16]) was Active. Moreover, the pEC50 was 5.64 in series [2]; 5.80 in [3]; 5.92 in [4]; 5.62 in series [8]; 5.59 in [10]; 5.48 in series [11]. Further, the half-maximal effective concentration (EC50) at 96 h in series [13] is above 60 µM.
Turning to `CC(=O)OC[C@@]1(C)[C@@H]2CC[C@]3(C)[C@H](CC=C4[C@@H]5[C@@H](C)[C@H](C)CC[C@]5(C(=O)Nc5cccc6ncccc56)CC[C@]43C)[C@@]2(C)C[C@@H](OC(C)=O)[C@@H]1OC(C)=O`, the result (in the series with A2780 [1]; with A2780 [6]; in series [17]; in series [18]; in the series on A2780 [19]; in series [20]) was Active. Moreover, the result (in series [21]; in series [22]; in the series with A2780 [23]) was Active. For the same compound, the pEC50 in series [2] is 6.10; in [3], 6.30; in [4], 6.40; in [8] it was 5.85; in [10] it was 6.05; in series [11], 5.96. The response in series [13] was half-maximal at 10.2 µM (EC50 at 96 h).
For the compound `CC(=O)O[C@H]1C[C@]2(C)[C@H]3CC=C4[C@@H]5CC(C)(C)CC[C@]5(C(=O)Nc5ccc6ncccc6c5)CC[C@@]4(C)[C@]3(C)CC[C@H]2C(C)(C)[C@H]1OC(C)=O`, the outcome (in the series on A2780 [1]; in the series with A2780 [6]; in series [7]; in series [9]; in series [12]; in series [15]) was Active. For the same compound, in series [16], the outcome was Active. Besides, the pEC50 is 5.36 in [2]; 5.54 in [3]; 5.70 in [4]; 5.24 in [8]; 5.42 in series [10]; 5.31 in series [11]. In series [13], a half-maximal effect (EC50 at 96 h) was put at 0.6 µM. The solubility entry in series [24] is “Insoluble”.
`CC(=O)OC[C@@]1(C)[C@@H]2CC[C@]3(C)[C@H](CC=C4[C@@H]5[C@@H](C)[C@H](C)CC[C@]5(C(=O)Nc5cncc6ccccc56)CC[C@]43C)[C@@]2(C)C[C@@H](OC(C)=O)[C@@H]1OC(C)=O`: the outcome (in the series with A2780 [1]; with A2780 [6]; in series [17]; in series [18]; in [20]; in series [21]) was Active. In addition, the result in [22] was Active. Also, the pEC50 in series [2] was 6.66; in [3], 6.72; in series [4], 7.10; in series [8] it was 6.27; in [11], 6.54. The figures for the Activity in the series on A2780 [19], with A2780 [26] and with A2780 [23] were 10%, 20% and 45%, respectively. The midpoint of the response in series [13], the EC50 at 96 h, lay at 3.23 µM. Moreover, the “Ratio EC50” value with A2780 [25] amounted to 40.
As to `CC(=O)O[C@H]1C[C@]2(C)[C@H]3CC=C4[C@@H]5CC(C)(C)CC[C@]5(C(=O)Nc5ccnc6ccccc56)CC[C@@]4(C)[C@]3(C)CC[C@H]2C(C)(C)[C@H]1OC(C)=O`, the result (in the series with A2780 [1]; with A2780 [6]; in [7]; in series [9]; in series [12]; in series [15]) was Active. In addition, the result in series [16] was Active. The pEC50 in series [2] is 5.39; in series [3], 5.62; in series [4], 5.70; in [8], 5.37; in series [10] it was 5.47; in series [11], 5.38. Further, the 50% effective concentration (EC50) at 96 h in series [13] is 2.9 µM. In [24], the solubility result is “Insoluble”.
`CC(=O)O[C@H]1C[C@]2(C)[C@H]3CC=C4[C@@H]5CC(C)(C)CC[C@]5(C(=O)Nc5cnc6ccccc6c5)CC[C@@]4(C)[C@]3(C)CC[C@H]2C(C)(C)[C@H]1OC(C)=O`: the outcome (in the series on A2780 [1]; in the series on A2780 [6]; in series [7]; in [9]; in series [12]; in series [15]) was Active. In addition, in series [16], the outcome was Active. The negative-log EC50 (pEC50) in series [2] is 5.20; in series [3], 5.54; in series [4], 5.66; in series [8] it was 5.03; in [10] it was 5.30; in series [11], 5.13. Besides, the EC50 at 96 h in series [13] worked out at 0.9 µM. The solubility result in [24] is recorded as “Insoluble”.

The values above are taken from ChEMBL document CHEMBL3865812, “Selective killing of cancer cells with triterpenoic acid amides - The substantial role of an aromatic moiety alignment” (Eur J Med Chem, 2016).
